The IC50 is the concentration needed to halve the response being measured. The low end stands for greater potency in that assay, the high end for weaker potency in that assay.

Holding throughout (assay type): biochemical
Holding throughout (details): ADP-Glo SIK kinase assay

In assay [1] the target is T1, SIK1 (Homo sapiens, UniProt P57059).
T1 construct: purchased Carna Biosciences 02-131
Put plainly: ADP-Glo kinase assay, SIK1. The gist of the method:
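ADP-Glo, RT throughout. Enz/substrate + ATP, 120 min; ADP-Glo reagent 40 min (ATP depletion); detection reagent 30 min; luminescence read. Neg ctrl 1% DMSO, pos ctrl 10 μM staurosporine, final concs.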
A general note: ADP-Glo first removes unused ATP, then detects ADP through luciferase.

Assay [2] addresses T2, SIK2 (Homo sapiens, UniProt Q9H0K1).
T2 construct: purchased ThermoFisher Scientific PV4792
In words: ADP-Glo kinase assay, SIK2. In a few lines:
(§1)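 Enzyme–substrate mix was started with ATP and incubated 120 min at RT. ADP formed was quantified by ADP-Glo: 40 min ATP depletion, then 30 min detection reagent converting ADP to ATP for luciferase luminescence, which rises with kinase activity. Controls: 1% DMSO and 10 μM staurosporine (final).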

In assay [3] the target is T3, SIK3 (Homo sapiens, UniProt Q9Y2K2).
T3 construct: purchased SignalChem S12-11G-100
T3 sequence (Q9Y2K2 whole entry): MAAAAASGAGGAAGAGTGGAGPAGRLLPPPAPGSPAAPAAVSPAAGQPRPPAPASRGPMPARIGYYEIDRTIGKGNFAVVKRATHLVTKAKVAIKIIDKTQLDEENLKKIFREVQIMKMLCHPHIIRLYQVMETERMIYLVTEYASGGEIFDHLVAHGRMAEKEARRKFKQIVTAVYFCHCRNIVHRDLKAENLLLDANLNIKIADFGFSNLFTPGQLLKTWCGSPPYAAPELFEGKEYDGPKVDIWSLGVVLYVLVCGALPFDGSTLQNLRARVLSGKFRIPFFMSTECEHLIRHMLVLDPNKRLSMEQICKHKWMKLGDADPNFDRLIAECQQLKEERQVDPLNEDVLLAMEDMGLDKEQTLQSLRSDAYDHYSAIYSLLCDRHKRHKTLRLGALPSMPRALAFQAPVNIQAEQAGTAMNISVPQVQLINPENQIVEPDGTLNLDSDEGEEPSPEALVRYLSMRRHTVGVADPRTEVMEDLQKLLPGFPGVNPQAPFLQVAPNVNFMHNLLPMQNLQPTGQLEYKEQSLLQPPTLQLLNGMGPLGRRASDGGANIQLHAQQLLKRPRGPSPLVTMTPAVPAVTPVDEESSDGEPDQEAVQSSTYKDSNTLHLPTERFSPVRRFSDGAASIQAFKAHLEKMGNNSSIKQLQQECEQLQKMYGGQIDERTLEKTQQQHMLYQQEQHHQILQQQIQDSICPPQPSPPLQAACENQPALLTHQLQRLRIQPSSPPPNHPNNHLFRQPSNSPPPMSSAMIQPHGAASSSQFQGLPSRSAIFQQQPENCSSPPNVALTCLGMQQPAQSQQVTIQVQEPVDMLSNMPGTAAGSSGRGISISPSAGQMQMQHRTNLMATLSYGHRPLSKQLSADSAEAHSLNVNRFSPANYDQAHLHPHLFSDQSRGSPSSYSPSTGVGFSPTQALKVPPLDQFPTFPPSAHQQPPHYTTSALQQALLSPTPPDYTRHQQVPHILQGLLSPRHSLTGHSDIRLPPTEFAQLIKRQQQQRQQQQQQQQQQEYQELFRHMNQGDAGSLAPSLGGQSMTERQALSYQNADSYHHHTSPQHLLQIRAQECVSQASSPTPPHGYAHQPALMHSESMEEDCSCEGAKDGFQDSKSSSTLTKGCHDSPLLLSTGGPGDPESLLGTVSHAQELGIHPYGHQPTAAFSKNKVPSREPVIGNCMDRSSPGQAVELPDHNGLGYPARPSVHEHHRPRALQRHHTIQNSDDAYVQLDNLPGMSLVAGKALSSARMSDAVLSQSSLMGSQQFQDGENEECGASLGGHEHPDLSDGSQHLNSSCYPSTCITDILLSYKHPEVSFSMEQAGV
In words: ADP-Glo kinase assay, SIK3. In a few lines:
as §1

T2 sequence (Q9H0K1 whole entry): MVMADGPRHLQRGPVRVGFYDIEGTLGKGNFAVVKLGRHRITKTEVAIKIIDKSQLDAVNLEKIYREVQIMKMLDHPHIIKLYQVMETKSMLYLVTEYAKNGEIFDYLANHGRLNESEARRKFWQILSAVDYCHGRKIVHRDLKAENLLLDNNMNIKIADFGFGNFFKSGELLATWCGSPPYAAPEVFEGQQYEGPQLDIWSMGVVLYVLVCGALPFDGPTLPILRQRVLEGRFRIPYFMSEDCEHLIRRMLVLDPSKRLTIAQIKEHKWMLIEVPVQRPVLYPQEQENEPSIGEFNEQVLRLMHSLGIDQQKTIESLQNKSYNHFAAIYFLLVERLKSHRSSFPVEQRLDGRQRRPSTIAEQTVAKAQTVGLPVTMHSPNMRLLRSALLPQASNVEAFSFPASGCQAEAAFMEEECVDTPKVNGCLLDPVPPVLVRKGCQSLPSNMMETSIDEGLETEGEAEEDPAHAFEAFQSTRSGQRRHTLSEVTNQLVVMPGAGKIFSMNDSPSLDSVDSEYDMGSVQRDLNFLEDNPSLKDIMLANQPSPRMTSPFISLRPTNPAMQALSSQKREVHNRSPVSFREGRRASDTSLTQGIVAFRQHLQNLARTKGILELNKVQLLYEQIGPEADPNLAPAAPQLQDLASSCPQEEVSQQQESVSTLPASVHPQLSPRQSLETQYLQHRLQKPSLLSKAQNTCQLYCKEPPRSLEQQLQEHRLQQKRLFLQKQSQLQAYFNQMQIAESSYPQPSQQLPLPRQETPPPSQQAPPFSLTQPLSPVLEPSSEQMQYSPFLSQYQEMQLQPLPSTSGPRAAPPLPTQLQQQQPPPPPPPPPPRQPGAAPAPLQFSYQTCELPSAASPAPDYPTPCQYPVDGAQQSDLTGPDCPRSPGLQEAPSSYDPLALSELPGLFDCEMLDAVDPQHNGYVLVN
T1 sequence (P57059 whole entry): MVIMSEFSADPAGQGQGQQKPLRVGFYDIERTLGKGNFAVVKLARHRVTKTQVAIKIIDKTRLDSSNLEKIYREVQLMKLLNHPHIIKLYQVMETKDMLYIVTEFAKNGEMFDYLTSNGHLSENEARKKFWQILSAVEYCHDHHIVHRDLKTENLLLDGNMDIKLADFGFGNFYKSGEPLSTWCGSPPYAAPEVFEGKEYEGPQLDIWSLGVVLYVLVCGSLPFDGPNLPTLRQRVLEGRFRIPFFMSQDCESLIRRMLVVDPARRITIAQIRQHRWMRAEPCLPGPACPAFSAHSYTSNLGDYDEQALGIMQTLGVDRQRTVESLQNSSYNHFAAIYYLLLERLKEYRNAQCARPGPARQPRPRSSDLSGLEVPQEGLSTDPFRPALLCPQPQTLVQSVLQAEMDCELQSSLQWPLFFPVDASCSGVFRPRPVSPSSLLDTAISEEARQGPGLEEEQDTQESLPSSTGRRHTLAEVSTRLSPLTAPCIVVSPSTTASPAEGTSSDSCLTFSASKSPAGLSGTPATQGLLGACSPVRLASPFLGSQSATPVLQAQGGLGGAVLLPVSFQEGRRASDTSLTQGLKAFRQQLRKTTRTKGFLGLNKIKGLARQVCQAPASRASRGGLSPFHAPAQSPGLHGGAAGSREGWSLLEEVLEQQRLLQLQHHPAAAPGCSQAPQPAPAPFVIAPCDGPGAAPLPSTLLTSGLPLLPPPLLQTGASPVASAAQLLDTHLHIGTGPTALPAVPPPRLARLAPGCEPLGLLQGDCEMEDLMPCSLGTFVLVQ

On to `COc1cc(-c2cnc3cc(OC(C)CN4CCOCC4)ccn23)cc(OC(F)F)c1C(=O)NC1CC1` (stereo not drawn) [compound 12, N-cyclopropyl-2-(difluoromethoxy)-6-methoxy-4-[7-(1-methyl-2-morpholino-ethoxy)imidazo[1,2-a]pyridin-3-yl]benzamide], for which the IC50 in assay [1] was over 500 nM; in assay [2], 100 to 500 nM; in assay [3] it was 10 to 100 nM.
As for `COc1cc(-c2cnc3cc(OCC4(N)CCC4)ccn23)cc(OC(F)F)c1C(=O)NC1CC1` [compound 174, 4-[7-[(1-aminocyclobutyl)methoxy]imidazo[1,2-a]pyridin-3-yl]-N-cyclopropyl-2-(difluoromethoxy)-6-methoxy-benzamide], the figures for the IC50 in assay [1], in assay [2] and in assay [3] were 100 to 500 nM, 0.01 to 10 nM and 0.01 to 10 nM, respectively.
For `COc1cc(-c2cnc3cc(OCC(=O)O)ccn23)cc(OC(F)F)c1C(=O)NC1CC1` [Cpd 396, 2-[3-[4-(cyclopropylcarbamoyl)-3-(difluoromethoxy)-5-methoxy-phenyl]imidazo[1,2-a]pyridin-7-yl]oxyacetic acid], the IC50 in assay [1] fell in the range of 100 to 500 nM; in assay [2], 100 to 500 nM; in assay [3], 10 to 100 nM.
Turning to `COc1cc(-c2cnc3cc(OCCN(C)c4ncccn4)ccn23)cc(OC(F)F)c1C(=O)NC1CC1` [compound 238, N-cyclopropyl-2-(difluoromethoxy)-6-methoxy-4-[7-[2-[methyl(pyrimidin-2-yl)amino]ethoxy]imidazo [1,2-a]pyridin-3-yl]benzamide], the IC50 in assay [1], in assay [2] and in assay [3] was 0.01 to 10 nM in each case.
Regarding `COc1cc(-c2cnc3cc(OCC4CCCCN4CC(F)(F)F)ccn23)cc(OC(F)F)c1C(=O)NC1CC1` (stereo not drawn) [Cpd 182, N-cyclopropyl-2-(difluoromethoxy)-6-methoxy-4-[7-[[1-(2,2,2-trifluoroethyl)-2-piperidyl]methoxy]imidazo[1,2-a]pyridin-3-yl]benzamide], the IC50 in assay [1] was in the range of 10 to 100 nM; in assay [2] it was 10 to 100 nM; in assay [3], 0.01 to 10 nM.
With `COc1cc(-c2cnc3cc(OC4CCC(F)(F)CC4)ccn23)cc(OC(F)F)c1C(=O)NC1CC1` [compound 77, N-cyclopropyl-4-[7-(4,4-difluorocyclohexoxy)imidazo[1,2-a]pyridin-3-yl]-2-(difluoromethoxy)-6-methoxy-benzamide], the IC50 in assay [1] fell in the range of 100 to 500 nM; in assay [2], 10 to 100 nM; in assay [3], 0.01 to 10 nM.
For `COc1cc(-c2cnc3cc(OCC4(C)CN(C(=O)OC(C)(C)C)C4)ccn23)cc(OC(F)F)c1C(=O)NC1CC1` [Cpd 188, tert-butyl 3-[[3-[4-(cyclopropylcarbamoyl)-3-(difluoromethoxy)-5-methoxy-phenyl]imidazo[1,2-a]pyridin-7-yl]oxymethyl]-3-methyl-azetidine-1-carboxylate], the IC50 in assay [1] was 10 to 100 nM; in assay [2], 0.01 to 10 nM; in assay [3], 0.01 to 10 nM.
Take `COc1cc(-c2cnc3cc(OCC4COCCO4)ccn23)cc(OC(F)F)c1C(=O)NC1CC1` (stereo not drawn) [compound 98, N-cyclopropyl-2-(difluoromethoxy)-4-[7-(1,4-dioxan-2-ylmethoxy)imidazo[1,2-a]pyridin-3-yl]-6-methoxy-benzamide]: the IC50 fell in the range of 10 to 100 nM in assay [1], 0.01 to 10 nM in assay [2] and 0.01 to 10 nM in assay [3].
On to `COc1cc(-c2cnc3cc(OCC4CNC(=O)C4)ccn23)cc(OC(F)F)c1C(=O)NC1CC1` (stereo not drawn) [compound 102, N-cyclopropyl-2-(difluoromethoxy)-6-methoxy-4-[7-[(5-oxopyrrolidin-3-yl)methoxy]imidazo[1,2-a]pyridin-3-yl]benzamide], for which the figures for the IC50 in assay [1], in assay [2] and in assay [3] were 10 to 100 nM, 0.01 to 10 nM and 0.01 to 10 nM, respectively.
With `COc1cc(-c2cnc3cc(OCC(C)(C)C)ccn23)cc(OC(F)F)c1C(=O)NC1CC1` [compound 66, N-cyclopropyl-2-(difluoromethoxy)-4-[7-(2,2-dimethylpropoxy)imidazo [1,2-a]pyridin-3-yl]-6-methoxy-benzamide], the IC50 in assay [1], in assay [2] and in assay [3] was 0.01 to 10 nM each time.
`COc1cc(-c2cnc3cc(OCCCN4CCn5ncnc5C4)ccn23)cc(OC(F)F)c1C(=O)NC1CC1` [compound 313, N-cyclopropyl-2-(difluoromethoxy)-4-[7-[3-(6,8-dihydro-5H-[1,2,4]triazolo[1,5-a]pyrazin-7-yl)propoxy]imidazo[1,2-a]pyridin-3-yl]-6-methoxy-benzamide]: the figures for the IC50 in assay [1], in assay [2] and in assay [3] were 10 to 100 nM, 0.01 to 10 nM and 0.01 to 10 nM, respectively.
As for `COc1cc(-c2cnc3cc(OCC4CCCC4)ccn23)cc(OC(F)F)c1C(=O)NC1CC1` [compound 61, 4-[7-(cyclopentylmethoxy)imidazo[1,2-a]pyridin-3-yl]-N-cyclopropyl-2-(difluoromethoxy)-6-methoxy-benzamide], the IC50 in assay [1], in assay [2] and in assay [3] was 0.01 to 10 nM each time.
As for `COc1cc(-c2cnc3cc(OCCCN4CCC(N(C)S(C)(=O)=O)CC4)ccn23)cc(OC(F)F)c1C(=O)NC1CC1` [compound 326, N-cyclopropyl-2-(difluoromethoxy)-6-methoxy-4-[7-[3-[4-[methyl(methylsulfonyl)amino]-1-piperidyl]propoxy]imidazo[1,2-a]pyridin-3-yl]benzamide], the IC50 is 10 to 100 nM in assay [1], 0.01 to 10 nM in assay [2] and 0.01 to 10 nM in assay [3].
Take `COc1cc(-c2cnc3cc(OCC(C)(C)C#N)ccn23)cc(OC(F)F)c1C(=O)NC1CC1` [compound 34, 4-[7-(2-cyano-2-methyl-propoxy)imidazo[1,2-a]pyridin-3-yl]-N-cyclopropyl-2-(difluoromethoxy)-6-methoxy-benzamide]: the IC50 in assay [1] lay in the range of 10 to 100 nM; in assay [2], 0.01 to 10 nM; in assay [3] it was 0.01 to 10 nM.
Turning to `COc1cc(-c2cnc3cc(OC4(C#N)CCCC4)ccn23)cc(OC(F)F)c1C(=O)NC1CC1` [Cpd 255, 4-[7-(1-cyanocyclopentoxy)imidazo[1,2-a]pyridin-3-yl]-N-cyclopropyl-2-(difluoromethoxy)-6-methoxy-benzamide], the IC50 was over 500 nM in assay [1], 100 to 500 nM in assay [2] and 10 to 100 nM in assay [3].
In the same order, the values of `COc1cc(-c2cnc3cc(OCc4cncn4C)ccn23)cc2c1C(=O)N(CC(F)(F)F)CC2` [compound 85, 8-methoxy-6-[7-[(3-methylimidazol-4-yl)methoxy]imidazo[1,2-a]pyridin-3-yl]-2-(2,2,2-trifluoroethyl)-3,4-dihydroisoquinolin-1-one] are over 500 nM, 0.01 to 10 nM and 0.01 to 10 nM.
In the same order, the values of `COc1cc(-c2cnc3cc(OCc4cc(C)nn4C)ccn23)cc(OC(F)F)c1C(=O)NC1CC1` [compound 198, N-cyclopropyl-2-(difluoromethoxy)-4-[7-[(2,5-dimethylpyrazol-3-yl)methoxy]imidazo[1,2-a]pyridin-3-yl]-6-methoxy-benzamide] are 10 to 100 nM, 0.01 to 10 nM and 0.01 to 10 nM.
As for `COCCOc1ccn2c(-c3cc(OC)c(C(=O)NC4CC4)c(OC(F)F)c3)cnc2c1` [compound 70, N-cyclopropyl-2-(difluoromethoxy)-6-methoxy-4-[7-(2-methoxyethoxy)imidazo [1,2-a]pyridin-3-yl]benzamide], the IC50 in assay [1] fell in the range of 10 to 100 nM; in assay [2], 0.01 to 10 nM; in assay [3], 0.01 to 10 nM.
